Assay results as given in US20240197938A1, “ANTIMICROBIAL COMPOUNDS BASED ON GLUCOHEPTONIC ACIDS AND THEIR SALTS” (HARCROS CHEMICALS, INC., priority 2021, published 2024).

What was measured:
Assay type in all cases: cell-based
Staphylococcus aureus = assay: ASTM E2315-16 Time-Kill Procedure; settings: for Log Reduction: 30 seconds; for log reduction: 10 minutes
Method: (§1) Select compounds were tested for antimicrobial activity using ASTM method […]-16 (Standard Guide for Assessment of Antimicrobial Activity using a Time-Kill Procedure). Six microbes were tested: Candida albicans, Staphylococcus aureus, Staphylococcus epidermidis. Escherichia coli, Salmonella abony, and Listeria monocytogenes. Four chlorhexidine salts were tested: chlorhexidine di-α-glucoheptonate (Sample G), chlorhexidine di-β73-glucoheptonate (Sample H), chlorhexidine digluconate (Sample I), and chlorhexidine diacetate (Sample P). Both chlorhexidine diglucoheptonate salts were prepared at a 2:1 molar ratio of glucoheptonic acid to chlorhexidine. Dilutions of each salt were prepared using sterile water (20-30 ppm hardness), to achieve the desired wt. % concentration. Two glucoheptonic acids were evaluated for antimicrobial activity against the same six microbes as Example 13. Sample L was α-glucoheptonic acid. Sample M was β73-glucoheptonic acid. Benzalkonium salts were also tested using the same procedure as set forth in Example 13. The samples were benzalkonium chloride (C12-C16) (Sample C), benzalkonium chloride (C12-C14) (Sample D), benzalkonium chloride in combination with a stoichiometric amount of α-glucoheptonate (Sample F), and benzalkonium chloride in combination with a molar excess of α-glucoheptonate (Sample N). Sample F was prepared by mixing and extensively heating a stoichiometric quantity (1:1) of sodium α-glucoheptonate with benzalkonium chloride, typified by the C12-14 alkyl chain. Sample N was prepared by simply blending benzalkonium chloride, typified by the C12-16 chain, with a molar excess of sodium α-glucoheptonate (1.6:1). Both Samples F and N contain sodium chloride.

Candida albicans = assay: ASTM E2315-16 Time-Kill Procedure; settings: for Log Reduction (LR): 5.0 % w/w; for Log Reduction: 30 seconds; for log reduction: 10 minutes
Method: as §1

[1] = test system: Staphylococcus epidermidis; assay: ASTM E2315-16 Time-Kill Procedure; settings: for Log Reduction: 30 seconds; for log reduction: 10 minutes
Method: as §1

[2] = test system: all microbes (Candida albicans, Staphylococcus aureus, Staphylococcus epidermidis, Escherichia coli, Salmonella abony, Listeria monocytogenes); assay: ASTM E2315-16 Time-Kill Procedure, average across all microbes; settings: for Log Reduction, Average, all microbes: 30 seconds; for log reduction, Average, all microbes / average Log Reduction (LR) in microbial population across all microbes: 10 minutes
Method: Select compounds were tested for antimicrobial activity using ASTM method […]-16 (Standard Guide for Assessment of Antimicrobial Activity using a Time-Kill Procedure). Six microbes were tested: Candida albicans, Staphylococcus aureus, Staphylococcus epidermidis. Escherichia coli, Salmonella abony, and Listeria monocytogenes. Four chlorhexidine salts were tested: chlorhexidine di-α-glucoheptonate (Sample G), chlorhexidine di-β73-glucoheptonate (Sample H), chlorhexidine digluconate (Sample I), and chlorhexidine diacetate (Sample P). Both chlorhexidine diglucoheptonate salts were prepared at a 2:1 molar ratio of glucoheptonic acid to chlorhexidine. Dilutions of each salt were prepared using sterile water (20-30 ppm hardness), to achieve the desired wt. % concentration. Samples G, H, I, and P were also tested at a concentration of 0.60 wt % active and evaluated for the average Log Reduction in microbial population at 10 minutes, across all microbes. A further test was conducted at a concentration of 1.0 wt % active and evaluated for the average Log Reduction in microbial population at 10 minutes, across all microbes. Benzalkonium salts were also tested using the same procedure as set forth in Example 13. The samples were benzalkonium chloride (C12-C16) (Sample C), benzalkonium chloride (C12-C14) (Sample D), benzalkonium chloride in combination with a stoichiometric amount of α-glucoheptonate (Sample F), and benzalkonium chloride in combination with a molar excess of α-glucoheptonate (Sample N). Sample F was prepared by mixing and extensively heating a stoichiometric quantity (1:1) of sodium α-glucoheptonate with benzalkonium chloride, typified by the C12-14 alkyl chain. Sample N was prepared by simply blending benzalkonium chloride, typified by the C12-16 chain, with a molar excess of sodium α-glucoheptonate (1.6:1). Both Samples F and N contain sodium chloride. A further antimicrobial test was conducted to determine the log reduction at 10 minutes. Samples C, D, F, and N are as defined above.

Salmonella abony = assay: ASTM E2315-16 Time-Kill Procedure; settings: for Log Reduction: 30 seconds; for log reduction: 10 minutes
Method: as §1, with “concentration.” for “concentration. Two glucoheptonic acids were evaluated for antimicrobial activity against the same six microbes as Example 13. Sample L was α-glucoheptonic acid. Sample M was β73-glucoheptonic acid.”

Escherichia coli = assay: ASTM E2315-16 Time-Kill Procedure; settings: for Log Reduction: 30 seconds; for log reduction: 10 minutes
Method: as §1, with “concentration.” for “concentration. Two glucoheptonic acids were evaluated for antimicrobial activity against the same six microbes as Example 13. Sample L was α-glucoheptonic acid. Sample M was β73-glucoheptonic acid.”

Listeria monocytogenes = assay: ASTM E2315-16 Time-Kill Procedure; settings: for Log Reduction: 30 seconds; for log reduction: 10 minutes
Method: as §1, with “concentration.” for “concentration. Two glucoheptonic acids were evaluated for antimicrobial activity against the same six microbes as Example 13. Sample L was α-glucoheptonic acid. Sample M was β73-glucoheptonic acid.”

[3] = 2.5 % w/w, contact time 10 minutes
[4] = 5.0 % w/w, contact time 5 minutes
[5] = 5.0 % w/w, contact time 10 minutes

## O=C(O)[C@H](O)[C@H](O)[C@@H](O)[C@H](O)[C@H](O)CO [Sample M, β73-glucoheptonic acid]
Staphylococcus aureus; [3]
  Log Reduction (LR): 3.13
Staphylococcus aureus; [4]
  Log Reduction (LR): 4.07
Staphylococcus aureus; [5]
  Log Reduction (LR): 4.13
Candida albicans; contact time 5 minutes
  Log Reduction (LR): 3.47
Candida albicans; contact time 10 minutes
  Log Reduction (LR): 4.00
[1]; 1.0 % w/w, contact time 10 minutes
  Log Reduction (LR): 3.47
[1]; 2.5 % w/w, contact time 5 minutes
  Log Reduction (LR): 3.17
[1]; [3]
  Log Reduction (LR): 3.50
[1]; [4]
  Log Reduction (LR): 3.39
[1]; [5]
  Log Reduction (LR): 3.47

## benzalkonium chloride (C12-C14) [Sample D]
Staphylococcus aureus; 0.10%
  Log Reduction: 3.59
  log reduction: 5.37
Staphylococcus aureus; 0.25%
  Log Reduction: 3.97
  log reduction: 5.67
Staphylococcus aureus; 0.50%
  Log Reduction: 4.19
  log reduction: 5.97
Candida albicans; 0.10%
  Log Reduction: 3.65
  log reduction: 4.84
Candida albicans; 0.25%
  Log Reduction: 3.75
  log reduction: 5.55
Candida albicans; 0.50%
  Log Reduction: 4.51
  log reduction: 5.77
[1]; 0.10%
  Log Reduction: 3.39
  log reduction: 4.47
[1]; 0.25%
  Log Reduction: 3.47
  log reduction: 4.98
[1]; 0.50%
  Log Reduction: 3.75
  log reduction: 5.05
[2]; 0.10%
  Log Reduction, Average, all microbes: 3.28
  log reduction, Average, all microbes: 4.84
[2]; 0.25%
  Log Reduction, Average, all microbes: 3.50
  log reduction, Average, all microbes: 5.21
[2]; 0.50%
  Log Reduction, Average, all microbes: 3.78
  log reduction, Average, all microbes: 5.41
Salmonella abony; 0.10%
  Log Reduction: 2.70
  log reduction: 4.14
Salmonella abony; 0.25%
  Log Reduction: 2.86
  log reduction: 4.34
Salmonella abony; 0.50%
  Log Reduction: 3.04
  log reduction: 4.55
Escherichia coli; 0.10%
  Log Reduction: 2.87
  log reduction: 4.62
Escherichia coli; 0.25%
  Log Reduction: 3.17
  log reduction: 4.77
Escherichia coli; 0.50%
  Log Reduction: 3.29
  log reduction: 5.07
Listeria monocytogenes; 0.10%
  Log Reduction: 3.49
  log reduction: 5.61
Listeria monocytogenes; 0.25%
  Log Reduction: 3.77
  log reduction: 5.97
Listeria monocytogenes; 0.50%
  Log Reduction: 3.91
  log reduction: 6.02

## N=C(NCCCCCCNC(=N)NC(=N)Nc1ccc(Cl)cc1)NC(=N)Nc1ccc(Cl)cc1.O=C(O)[C@H](O)[C@@H](O)[C@H](O)[C@H](O)CO.O=C(O)[C@H](O)[C@@H](O)[C@H](O)[C@H](O)CO [Sample I, chlorhexidine digluconate]
Staphylococcus aureus; 0.20% (wt. %)
  Log Reduction: 1.77
Staphylococcus aureus; 0.60% (wt. %)
  Log Reduction: 3.07
Staphylococcus aureus; 1.00% (wt. %)
  Log Reduction: 3.37
Candida albicans; 0.20% (wt. %)
  Log Reduction: 2.91
Candida albicans; 0.60% (wt. %)
  Log Reduction: 4.35
Candida albicans; 1.00% (wt. %)
  Log Reduction: 6.40
[1]; 0.20% (wt. %)
  Log Reduction: 2.00
[1]; 0.60% (wt. %)
  Log Reduction: 3.08
[1]; 1.00% (wt. %)
  Log Reduction: 3.25
[2]; 0.20% (wt. %)
  Log Reduction, Average, all microbes: 2.24
[2]; 0.60% (wt. %)
  Log Reduction, Average, all microbes: 3.22
[2]; 1.00% (wt. %)
  Log Reduction, Average, all microbes: 3.85
[2]; 0.60 wt % active
  average Log Reduction (LR) in microbial population across all microbes: 4.84
[2]; 1.0 wt % active
  average Log Reduction (LR) in microbial population across all microbes: 5.46
Salmonella abony; 0.20% (wt. %)
  Log Reduction: 1.86
Salmonella abony; 0.60% (wt. %)
  Log Reduction: 2.63
Salmonella abony; 1.00% (wt. %)
  Log Reduction: 2.89
Escherichia coli; 0.20% (wt. %)
  Log Reduction: 2.93
Escherichia coli; 0.60% (wt. %)
  Log Reduction: 3.07
Escherichia coli; 1.00% (wt. %)
  Log Reduction: 3.27
Listeria monocytogenes; 0.20% (wt. %)
  Log Reduction: 1.99
Listeria monocytogenes; 0.60% (wt. %)
  Log Reduction: 3.13
Listeria monocytogenes; 1.00% (wt. %)
  Log Reduction: 3.91
